The record followed here is US11173116B2, “Drug delivery system kit comprising an enzyme” (INDUSTRY-ACADEMIC COOPERATION FOUNDATION, YONSEI UNIVERSITY, priority 2018, dated 2021).

SMILES strings stand for the structures. Structures can show the parent of a compound that is named as a salt.

The series concerns HeLa cells. Put plainly: Cytotoxicity test, MTT assay. The format is cell-based. Particulars: amount of 1 μg. As to the method: HeLa cells were cultured for 2 to 3 days in a 100 mm culture dish (SPL, Pocheon-si, Korea) in a 5% CO2 incubator. When 95% of the cells were grown, the cells were detached by trypsin-EDTA treatment. Thereafter, for a toxicity test, the cells were inoculated at a density of 7,000 cells/well in a 24-well plate. For cell attachment, the cells were cultured for one day, and for cytotoxicity and anticancer assays, the enzyme, DOX, and DOX-free hollow drug delivery system in the culture medium were used to treat the cells separately. After the materials were cultured for one day, the cytotoxicity was measured using a 3-(4,5-dimethylthiazol-2-yl)-2,5-diphenyltetrazolium bromide (MTT) assay. An MTT solution (5 mg/mL) in PBS was used to treat the cells for 2 hours in an incubator, the cells were dissolved in DMSO, and the absorbance at a wavelength of 540 nm was measured using a plate reader (SpectraMax 340 PC; Molecular Devices, Sunnyvale, Calif., USA).
The anticancer effect of the DOX-conjugated drug delivery system was investigated through a cytotoxicity test. In this case, 1 μg of the DOX-conjugated hollow drug delivery systems of Preparation Examples 4 and 5 were used. A cell culture medium was composed of 90% Dulbecco's Modified Eagle Medium, 10% fetal bovine serum, and 1% penicillin-streptomycin-glutamine. […]
In general terms: Formazan colour is commonly taken as a measure of viable cells.

`COc1cccc2c1C(=O)c1c(O)c3c(c(O)c1C2=O)C[C@@](O)(C(=O)CO)C[C@@H]3O[C@H]1C[C@H](N)[C@H](O)[C@H](C)O1` [DOX, doxorubicin hydrochloride]: the cytotoxicity entry is given as “very high toxicity”.
